Reference: patent US20250100993A1, “2-SUBSTITUTED THIAZOLE HSD17B13 INHIBITORS AND USES THEREOF” (Inipharm, Inc., priority 2022, published 2025)

Biological target: HSD17B13 (Homo sapiens (Human), UniProt Q7Z5P4)
Assay: LC/MS estrone detection assay for HSD17B13 activity (estradiol to estrone)
Type: biochemical
Conditions: estradiol substrate, LC-MS/MS estrone detection
Experimental: The liquid chromatography/mass spectrometry (LC/MS) estrone detection assay monitors the conversion of estradiol to estrone by HSD17B13. This assay was undertaken in a 96 wp format (Eppendorf deep well Plate 96/500) in an 80 μl reaction volume containing: 4 μM of Estradiol (E2; Cayman; Ser. No. 10/006,315), 6 mM NAD+(Sigma; #N0623) and 30 nM HSD17B13 enzyme (in-house; E. coli expressed His-tagged, purified, soluble protein) in a reaction containing 1M potassium phosphate buffer pH 7.4, with 0.5% vehicle (DMSO). Reactions were incubated for 2 hours at 26.5° C., and estradiol (E2) conversion to estrone (E1) was quantitated by LC-MS/MS based analyte detection for both E2 and E1 using LCMS grade reagents.
Reactions were terminated by the addition of two volumes of acetonitrile (MeCN; LCMS grade; CAS #75/05/8) containing deuterated (D4)-E1 used as internal standard (Clear Synth; #CS-T-54273; 500 ng/mL final concentration). Samples were applied to pre-prepared Bond Elut-C18 extraction cartridges (3 mL; Agilent; Ser. No. 12/102,028), washed and eluted in MeCN. Eluates were dried under nitrogen and re-suspended in 60% methanol (LCMS grade methanol; CAS #67/56/1) before submission for analysis. Aqueous linearity for E2 and E1 were included for quantification.
Analysis of samples was undertaken on a XBridge BEH C18 column (Waters; #186003033) using 0.1% Diethyl Amine in MeCN (mobile phase A; DEA CAS #109-89-7) and 0.1% Diethyl Amine in milli-Q water (mobile phase B) in a 3 min gradient allowing 25% B. Analytes were detected in negative mode using MRM analysis, with E2 having a RT of 1.85 min and E1 having a RT of 2 min. Activity of the enzyme, in the absence of NAD+, was used to evaluate specificity of conversion. Enzyme activity in the presence of test samples was expressed as a percentage of the uninhibited enzyme activity, and plotted versus inhibitor concentration. Non-linear regression was performed using a four-parameter logistic model and GraphPad Prism software (GraphPad Software, La Jolla, CA). All assessments were undertaken in duplicate evaluations and pooled during extraction process and subsequently injected as duplicates for LC-MS/MS analysis.

HSD17B13, sequence (Q7Z5P4 20-300): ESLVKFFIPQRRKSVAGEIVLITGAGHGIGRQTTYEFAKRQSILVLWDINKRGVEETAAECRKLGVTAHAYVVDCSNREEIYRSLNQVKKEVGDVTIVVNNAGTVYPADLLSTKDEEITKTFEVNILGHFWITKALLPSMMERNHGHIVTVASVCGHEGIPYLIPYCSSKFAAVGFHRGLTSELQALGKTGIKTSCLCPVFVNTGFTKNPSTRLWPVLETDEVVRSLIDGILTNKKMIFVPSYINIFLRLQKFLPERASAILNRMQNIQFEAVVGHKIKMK

Row | SMILES | IC50
1 | O=C(Nc1n[nH]cc1C(=O)NCc1ccccc1C(F)(F)F)c1cc(Cl)c(O)c(Cl)n1 [Example 1, 4,6-dichloro-5-hydroxy-N-(4-((2-(trifluoromethyl)benzyl)carbamoyl)-1H-pyrazol-3-yl)picolinamide] | ≤ 100 nM
2 | Cn1cc(C(=O)NCc2ccccc2C(F)(F)F)c(NC(=O)c2cc(Cl)c(O)c(Cl)n2)n1 [Example 2, 4,6-dichloro-5-hydroxy-N-(1-methyl-4-((2-(trifluoromethyl)benzyl)carbamoyl)-1H-pyrazol-3-yl)picolinamide] | 100 to 500 nM
3 | O=C(Nc1n[nH]cc1C(=O)NCc1ccccc1C(F)(F)F)c1cc(Cl)c(O)c(Cl)c1 [Example 3, 3-(3,5-dichloro-4-hydroxybenzamido)-N-(2-(trifluoromethyl)benzyl)-1H-pyrazole-4-carboxamide] | ≤ 100 nM
4 | Cn1cc(NC(=O)c2cc(Cl)c(O)c(Cl)n2)c(C(=O)NCc2ccccc2OC(F)(F)F)n1 [Example 4, 4,6-dichloro-5-hydroxy-N-(1-methyl-3-((2-(trifluoromethoxy)benzyl)carbamoyl)-1H-pyrazol-4-yl)picolinamide] | 100 to 500 nM
5 | Cn1ncc(NC(=O)c2cc(Cl)c(O)c(Cl)n2)c1C(=O)NCc1ccccc1OC(F)(F)F [Example 5, 4,6-dichloro-5-hydroxy-N-(1-methyl-5-((2-(trifluoromethoxy)benzyl)carbamoyl)-1H-pyrazol-4-yl)picolinamide] | 100 to 500 nM
6 | Cn1cc(C(=O)NCc2ccccc2C(F)(F)F)c(NC(=O)c2cc(Cl)c(O)c(Cl)c2)n1 [Example 6, 3-(3,5-dichloro-4-hydroxybenzamido)-1-methyl-N-(2-(trifluoromethyl)benzyl)-1H-pyrazole-4-carboxamide] | 100 to 500 nM
7 | Cn1ncc(C(=O)NCc2ccccc2C(F)(F)F)c1NC(=O)c1cc(Cl)c(O)c(Cl)c1 [Example 7, 5-(3,5-dichloro-4-hydroxybenzamido)-1-methyl-N-(2-(trifluoromethyl)benzyl)-1H-pyrazole-4-carboxamide] | 1000 to 10000 nM
8 | O=C(Nc1nn(-c2ccccc2)cc1C(=O)NCc1ccccc1C(F)(F)F)c1cc(Cl)c(O)c(Cl)n1 [Example 8, 4,6-dichloro-5-hydroxy-N-(1-phenyl-4-((2-(trifluoromethyl)benzyl)carbamoyl)-1H-pyrazol-3-yl)picolinamide] | 100 to 500 nM
9 | O=C(Nc1nn(-c2ccccc2)cc1C(=O)NCc1ccccc1C(F)(F)F)c1cc(Cl)c(O)c(Cl)c1 [Example 9, 3-(3,5-dichloro-4-hydroxybenzamido)-1-phenyl-N-(2-(trifluoromethyl)benzyl)-1H-pyrazole-4-carboxamide] | ≤ 100 nM
10 | Cn1ncc(C(=O)NCc2ccccc2C(F)(F)F)c1NC(=O)c1cc(Cl)c(O)c(Cl)n1 [Example 10, 4,6-dichloro-5-hydroxy-N-(1-methyl-4-((2-(trifluoromethyl)benzyl)carbamoyl)-1H-pyrazol-5-yl)picolinamide] | 1000 to 10000 nM
11 | Cc1ccc(NC(=O)c2cc(Cl)c(O)c(Cl)c2)c2c(=O)n(Cc3ccccc3C(F)(F)F)nnc12 [Example 11, 3,5-dichloro-4-hydroxy-N-(8-methyl-4-oxo-3-(2-(trifluoromethyl)benzyl)-3,4-dihydrobenzo[d][1,2,3]triazin-5-yl)benzamide] | ≤ 100 nM
12 | Cc1ccc(NC(=O)c2cc(Cl)c(O)c(Cl)n2)c2c(=O)n(Cc3ccccc3C(F)(F)F)nnc12 [Example 12, 4,6-dichloro-5-hydroxy-N-(8-methyl-4-oxo-3-(2-(trifluoromethyl)benzyl)-3,4-dihydrobenzo[d][1,2,3]triazin-5-yl)picolinamide] | 100 to 500 nM
13 | O=C(Nc1ccc(F)c2nnn(Cc3ccccc3C(F)(F)F)c(=O)c12)c1cc(Cl)c(O)c(Cl)n1 [Example 13, 4,6-dichloro-N-(8-fluoro-4-oxo-3-(2-(trifluoromethyl)benzyl)-3,4-dihydrobenzo[d][1,2,3]triazin-5-yl)-5-hydroxypicolinamide] | 100 to 500 nM
14 | O=C(Nc1ccc(F)c2nnn(Cc3ccccc3C(F)(F)F)c(=O)c12)c1cc(Cl)c(O)c(Cl)c1 [Example 14, 3,5-dichloro-N-(8-fluoro-4-oxo-3-(2-(trifluoromethyl)benzyl)-3,4-dihydrobenzo[d][1,2,3]triazin-5-yl)-4-hydroxybenzamide] | ≤ 100 nM
15 | Cc1nc2c(F)ccc(NC(=O)c3cc(Cl)c(O)c(Cl)n3)c2c(=O)n1[C@H]1CC[C@@H]1c1ccccc1 [Example 15, 4,6-dichloro-N-(8-fluoro-2-methyl-4-oxo-3-((1S,2R)-2-phenylcyclobutyl)-3,4-dihydroquinazolin-5-yl)-5-hydroxypicolinamide] | 100 to 500 nM
16 | Cc1nc2c(F)ccc(NC(=O)c3cc(Cl)c(O)c(Cl)c3)c2c(=O)n1[C@H]1CC[C@@H]1c1ccccc1 [Example 16, 3,5-dichloro-N-(8-fluoro-2-methyl-4-oxo-3-((1S,2R)-2-phenylcyclobutyl)-3,4-dihydroquinazolin-5-yl)-4-hydroxybenzamide] | ≤ 100 nM
17 | Cc1ccc(NC(=O)c2cc(Cl)c(O)c(Cl)c2)c2c(=O)n(C3CCC3c3ccccc3C(F)(F)F)c(C)nc12 (stereo not shown) [Example 17, 3,5-dichloro-N-(2,8-dimethyl-4-oxo-3-(2-(2-(trifluoromethyl)phenyl)cyclobutyl)-3,4-dihydroquinazolin-5-yl)-4-hydroxybenzamide] | 100 to 500 nM

The remaining lines, values ahead:

Row | IC50 | SMILES
18 | 100 to 500 nM | CCn1c(=O)n(Cc2ccccc2C(F)(F)F)c(=O)c2c(NC(=O)c3cc(Cl)c(O)c(Cl)n3)cccc21 [Example 18, 4,6-dichloro-N-(1-ethyl-2,4-dioxo-3-(2-(trifluoromethyl)benzyl)-1,2,3,4-tetrahydroquinazolin-5-yl)-5-hydroxypicolinamide]
19 | 100 to 500 nM | Cn1c(=O)n(Cc2ccccc2C(F)(F)F)c(=O)c2c(NC(=O)c3cc(Cl)c(O)c(Cl)n3)ccc(F)c21 [Example 19, 4,6-dichloro-N-(8-fluoro-1-methyl-2,4-dioxo-3-(2-(trifluoromethyl)benzyl)-1,2,3,4-tetrahydroquinazolin-5-yl)-5-hydroxypicolinamide]
20 | 100 to 500 nM | Cn1c(=O)n(Cc2ccccc2C(F)(F)F)c(=O)c2c(NC(=O)c3cc(Cl)c(O)c(Cl)n3)cccc21 [Example 20, 4,6-dichloro-5-hydroxy-N-(1-methyl-2,4-dioxo-3-(2-(trifluoromethyl)benzyl)-1,2,3,4-tetrahydroquinazolin-5-yl)picolinamide]
21 | 100 to 500 nM | Cc1nc(C(=O)NCc2ccccc2OC(F)(F)F)c(NC(=O)c2cc(Cl)c(O)c(Cl)c2)s1 [Example 21, 5-(3,5-dichloro-4-hydroxybenzamido)-2-methyl-N-(2-(trifluoromethoxy)benzyl)thiazole-4-carboxamide]
22 | 100 to 500 nM | Cc1nc(C(=O)NCc2ccccc2OC(F)(F)F)c(NC(=O)c2cc(Cl)c(O)c(Cl)n2)s1 [Example 22, 5-(4,6-dichloro-5-hydroxypicolinamido)-2-methyl-N-(2-(trifluoromethoxy)benzyl)thiazole-4-carboxamide]
23 | ≤ 100 nM | O=C(Nc1sc(-c2ccccc2)nc1C(=O)NCc1ccccc1C(F)(F)F)c1cc(Cl)c(O)c(Cl)n1 [Example 23, 5-(4,6-dichloro-5-hydroxypicolinamido)-2-phenyl-N-(2 (trifluoromethyl)benzyl)thiazole-4-carboxamide]
24 | 100 to 500 nM | O=C(Nc1scnc1C(=O)NC1(c2ccccc2C(F)(F)F)CC1)c1cc(Cl)c(O)c(Cl)n1 [Example 24, 5-(4,6-dichloro-5-hydroxypicolinamido)-N-(1-(2-(trifluoromethyl)phenyl)cyclopropyl)thiazole-4-carboxamide]
25 | 100 to 500 nM | CN(Cc1ccccc1C(F)(F)F)C(=O)c1ncsc1NC(=O)c1cc(Cl)c(O)c(Cl)n1 [Example 25, 5-(4,6-dichloro-5-hydroxypicolinamido)-N-methyl-N-(2-(trifluoromethyl)benzyl)thiazole-4-carboxamide]
26 | 100 to 500 nM | Cc1nc(C(=O)NCc2ccccc2C(F)(F)F)c(NC(=O)c2cc(Cl)c(O)c(Cl)n2)s1 [Example 26, 5-(4,6-dichloro-5-hydroxypicolinamido)-2-methyl-N-(2-(trifluoromethyl)benzyl)thiazole-4-carboxamide]
27 | 100 to 500 nM | Cc1nc(C(=O)NCc2ccccc2C(F)(F)F)c(NC(=O)c2cc(Cl)c(O)c(Cl)c2)s1 [Example 27, 5-(3,5-dichloro-4-hydroxybenzamido)-2-methyl-N-(2-(trifluoromethyl)benzyl)thiazole-4-carboxamide]
28 | 1000 to 10000 nM | O=C(Nc1ncc(C(=O)NCc2ccccc2C(F)(F)F)s1)c1cc(Cl)c(O)c(Cl)n1 [Example 28, 2-(4,6-dichloro-5-hydroxypicolinamido)-N-(2-(trifluoromethyl)benzyl)thiazole-5-carboxamide]
